Results: patent US9266817B2, “Catecholamine derivatives for obesity and neurological disorders” (EMORY UNIVERSITY, priority 2009, dated 2016)

Key:
TrkB [1] = biological target: T1, TrkB (Rattus norvegicus, UniProt Q63604); experiment: TrkB activation in cortical neurons after pretreatment with antibodies, receptor antagonists, transporter inhibitors or EDTA (anti-p-TrkB-Y-816 immunoblot); assay type: cell-based
T1 construct: endogenous in cells; host or cells: primary rat cortical and hippocampal neurons
T1 sequence (Q63604 32-821): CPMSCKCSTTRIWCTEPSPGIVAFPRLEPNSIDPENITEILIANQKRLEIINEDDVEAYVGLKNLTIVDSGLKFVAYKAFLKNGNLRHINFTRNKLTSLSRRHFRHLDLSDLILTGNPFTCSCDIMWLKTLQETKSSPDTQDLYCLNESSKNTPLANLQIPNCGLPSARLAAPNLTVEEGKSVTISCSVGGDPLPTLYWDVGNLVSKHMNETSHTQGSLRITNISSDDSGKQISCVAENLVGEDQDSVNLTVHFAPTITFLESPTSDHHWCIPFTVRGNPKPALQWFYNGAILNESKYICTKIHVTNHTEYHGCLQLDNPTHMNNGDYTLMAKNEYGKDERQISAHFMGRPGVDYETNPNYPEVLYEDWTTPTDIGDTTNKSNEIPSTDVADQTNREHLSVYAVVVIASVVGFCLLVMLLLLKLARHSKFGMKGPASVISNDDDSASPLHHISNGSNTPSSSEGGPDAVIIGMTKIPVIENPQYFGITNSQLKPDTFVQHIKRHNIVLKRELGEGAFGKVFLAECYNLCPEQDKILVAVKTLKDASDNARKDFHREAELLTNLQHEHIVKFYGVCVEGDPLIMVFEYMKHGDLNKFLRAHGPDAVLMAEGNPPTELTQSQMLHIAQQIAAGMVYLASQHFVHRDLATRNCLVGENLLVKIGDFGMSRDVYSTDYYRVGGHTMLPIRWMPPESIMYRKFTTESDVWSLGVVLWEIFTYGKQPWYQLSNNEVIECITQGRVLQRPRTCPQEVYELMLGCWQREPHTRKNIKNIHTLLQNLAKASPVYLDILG
Text: (§1) Both antidepressants and exercise increase hippocampal BDNF mRNA expression through enhanced 5-HT and/or NE neurotransmission (Siuciak et al., Pharmacol. Biochem. Behav., 56:131-137, 1997; Dias et al., Neuropharmacology, 45:553-563, 2003; Ivy et al., Pharmacol. Biochem. Behav., 75:81-88, 2003; Garza et al., Pharmacol. Biochem. Behav., 77:209-220, 2004). If catecholamines activated TrkB signaling indirectly by promoting BDNF generation, then scavenging BDNF with its specific antibody would be expected to diminish catecholamines-mediated activation of TrkB. Cultured cortical neurons were pretreated with BDNF-IgG for 30 minutes followed by exposure to BDNF (10 ng/ml) or catecholamines (100 nM) for 15 minutes. […] It was then determined whether catecholamines could activate TrkB in neurons cultured from mice carrying a null mutation of BDNF.
To further investigate the specificity of catecholamines in inducing TrkB activation, cortical neurons were pretreated with control IgG or norepinephrine IgG, a rabbit polyclonal antibody for norepinephrine, followed by catecholamines.
(§2) It was then determined whether catecholamines could activate TrkB in neurons cultured from mice carrying a null mutation of NET.
(§3) The cell lysates were analyzed by immunoblotting with anti-p-TrkB-Y-816.
as §3
A group of primary cortical neurons were pretreated with 1 mM EDTA, and another group of primary cortical neurons were not pretreated. Both groups of primary cortical neurons were then treated with either Zn (100 μM) or a catecholamine (100 nM) for 15 minutes. The neuronal cell lysates were analyzed by immunoblotting with anti-p-TrkB-Y-816 antibody.

TrkB [2] = biological target: T1, TrkB; experiment: Immunofluorescent staining with anti-phospho-TrkB Y816 in primary hippocampal neurons; assay type: cell-based; conditions: 300 nM, 30 min
Method: Primary Rat Cortical and Hippocampal Neuron Cultures
Primary hippocampal neurons were seeded on poly-L-lysine coated coverslips in a 12-well plate. After 7 days in vitro, the neurons were treated with 100 ng/ml BDNF or variety of neurotransmitters and 7,8-dihydroxyflavone compound (500 nM) for 30 min, and then washed with PBS. Cells were fixed with 3% formaldehyde in PBS at room temperature for 15 min. The cells were then permeabilized and blocked by 0.4% Triton X-100 and 2% FBS in PBS at room temperature for 15 minutes, washed with PBS three times and treated with anti-MAP2 (1:200) and anti-phospho-TrkB antibodies (1:100). After staining with FITC- or Rhodamine-conjugated secondary antibody, the coverslips were mounted on slides. Fluorescent images were taken by OLYMPUS IX71 fluorescence microscope (Olympus; Center Valley, Pa.).
(§4) To explore whether monoamine neurotransmitters, including catecholamines (see, e.g., FIG. 1), could stimulate TrkB activation, hippocampal neurons were treated with 300 nM of catecholamines, serotonin, and melatonin for 30 min.

TrkB [3] = biological target: T1, TrkB; experiment: Immunoblotting of TrkB phosphorylation in primary cortical neurons treated with catecholamines; assay type: cell-based; conditions: for TrkB activation (immunoblotting of neuronal lysates): primary neurons
Method: Primary cultured rat cortical neurons were prepared as follows. E17 rat pups were decapitated and cortex was extirpated, cross chopped and suspended by pipetting for separation in 5% fetal calf serum (FCS), 5% horse serum (HS) DMEM. The cell suspension was then centrifuged at 250×g for 5 min. This operation was repeated. Cells were seeded into polyethyleneimine-coated 10 cm^2 dishes and 12-well plates including coated-coverslips and incubated at 37° C. in 5% CO2/95% air. After 3 hours, the culture medium was changed to Neurobasal containing B-27 supplement (Invitrogen; Carlsbad, Calif.) and incubated for 4 days. For maintenance, half of the culture medium was changed to fresh Neurobasal/B27 in every 4 days. After 1 week, the dished cultured neurons were ready for use.
as §4

TrkB [4] = biological target: T2, TrkB (Mus musculus, UniProt P15209, F616A); assay type: in vivo; conditions: L-DOPA 50 mg/kg, DOPS 100 mg/kg, 1NMPP1 50 μM
T2 construct: from tissue; host or cells: mouse brain
T2 sequence (P15209 32-821 F616A): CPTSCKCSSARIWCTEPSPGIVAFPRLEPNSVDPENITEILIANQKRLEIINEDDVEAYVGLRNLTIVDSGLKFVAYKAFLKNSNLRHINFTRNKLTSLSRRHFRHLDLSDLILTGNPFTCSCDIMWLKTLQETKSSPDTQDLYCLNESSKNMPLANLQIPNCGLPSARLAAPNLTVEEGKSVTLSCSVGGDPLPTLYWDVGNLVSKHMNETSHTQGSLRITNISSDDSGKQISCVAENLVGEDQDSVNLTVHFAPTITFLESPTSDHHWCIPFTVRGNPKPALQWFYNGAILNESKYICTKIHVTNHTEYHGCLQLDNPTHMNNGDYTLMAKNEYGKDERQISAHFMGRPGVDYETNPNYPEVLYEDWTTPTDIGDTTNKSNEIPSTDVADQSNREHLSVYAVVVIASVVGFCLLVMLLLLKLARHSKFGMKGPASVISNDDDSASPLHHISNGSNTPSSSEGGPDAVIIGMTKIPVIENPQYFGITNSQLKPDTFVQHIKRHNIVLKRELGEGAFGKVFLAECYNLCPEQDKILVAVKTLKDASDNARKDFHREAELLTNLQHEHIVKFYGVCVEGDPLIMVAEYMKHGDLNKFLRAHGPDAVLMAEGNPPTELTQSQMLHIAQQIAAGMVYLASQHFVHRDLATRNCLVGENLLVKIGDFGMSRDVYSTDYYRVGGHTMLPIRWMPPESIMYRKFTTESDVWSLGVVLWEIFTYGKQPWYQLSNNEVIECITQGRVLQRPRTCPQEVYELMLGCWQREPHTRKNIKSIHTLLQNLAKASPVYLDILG
Method: The DOPS concentration was 20 mg/ml, the vitamin C concentration was 2 mg/ml, and the benserazide concentration was 5 mg/ml. The vitamin C prevents oxidation of the DOPS, and the benserazide is a peripheral inhibitor of AADC and restricts the production of NE from DOPS to the brain. The compounds were added to a tube, and 20 μl of 10 M HCl was added to each ml of DOPS solution. The appropriate amount of water was added to the tube, and then HCl was added to achieve the desired volume. For example, to make 1 mL of a DOPS solution, 20 mg DOPS, 2 mg vitamin C, and 5 mg benserazide were added to a tube, followed by 980 μL of water and 20 μL of 10 M HCl. The solution was vortexed until all DOPS was dissolved. The DOPS solution was injected subcutaneously in a volume of 50 μl/g of mouse. The appropriate amount of DOPS solution was pipetted into a clean tube, followed by the amount of 10 M NaOH required to exactly neutralize the HCl. The solution was then shaken. The amount of 10 M NaOH is the weight of the mouse in microliters. For example, for a 20 g mouse, pipet 1 ml of the DOPS solution is pipetted into a tube and 20 μL of 10 M NaOH is added. For a 30 g mouse, 1.5 mL of the DOPS solution is pipetted into a tube and 30 μl of 10 M NaOH is added. Two to four month-old TrkBF616A mice were pretreated with 1NMPP1 in drinking water (50 μM) 1 day before L-DOPA (50 mg/kg) or DOPS (100 mg/kg) intraperitoneal injection. At times of 2 hours and 5 hours after drug administration, the L-DOPA or DOPS-treated mice were sacrificed, respectively. The brain lysates were prepared and analyzed by immunoblotting against anti-phospho-TrkB Y816 and TrkA Y794 antibodies.
(§5) TrkB F616A mice were pretreated with 1NMPP1 (50 μM) before L-DOPA or DOPS administration.

TrkB [5] = assay type: in vivo; conditions: BDNF conditional knockout mice, compared to vehicle control
TrkB [6] = biological target: T3, TrkB (Mus musculus, UniProt P15209); assay type: cell-based, mice; conditions: compared to wild-type control neurons
T3 construct: endogenous in cells; host or cells: primary cortical neurons from BDNF-null, TrkB +/- cross, TrkC knockout and NET -/- mice
T3 sequence (P15209 32-821): as the sequence (P15209 32-821 F616A) above, with A585F counted along it
Method: as §2

TrkB [7] = biological target: T1, TrkB; experiment: Screening of catecholamine derivatives for TrkB activation in primary cortical neurons (anti-p-TrkB-Y-816 immunoblot); assay type: cell-based; conditions: 500 nM, 30 min
Method: Catecholamines can directly bind to the kinase domain of the TrkB receptor and activate it. However, the catecholamines are not able to cross through the blood brain barrier. […] Cortical neurons (7 DIV cortical neurons from 18 day old Sprague Dawley rat embryos) were treated with 500 nM of the selected compound for 30 min and cell lysates were prepared. The cell lysates ([…]) were analyzed for TrkB activation by immunoblotting with anti-p-TrkB-Y-816 antibody.
Catecholamine derivatives as described herein, including Compound I-2, Compound I-5, Compound I-7, Compound I-8, Compound I-9, Compound I-10, Compound I-11, Compound I-14, Compound I-15, Compound I-17, Compound I-18, and isoproterenol, were screened for TrkB activation in primary cortical neurons. Cortical neurons (7 DIV cortical neurons from 18 day old Sprague Dawley rat embryos) were treated with 500 nM of the selected compound for 30 min and cell lysates were prepared. The cell lysates ([…]) were analyzed for TrkB activation by immunoblotting with anti-p-TrkB-Y-816 antibody.

TrkB [8] = experiment: TrkB activation in mouse brain after administration of catecholamine derivatives (anti-p-TrkB-Y-816 immunoblot); assay type: in vivo; conditions: 50 mg/kg orally (in saline), C57BL/6J mice
Method: To explore whether these compounds could stimulate TrkB in vivo, 50 mg/kg of Compound I-11, Compound I-8, and Compound I-2 (2-(methylamino)-3′,4′-dihydroxy-acetophenone) were each orally administered (in saline) to 2-month-old C57BL/6J mice. The mice were sacrificed at different time points and TrkB activation in the brains of the mice was monitored by immunoblotting with anti-p-TrkB-Y-816 antibody.
To determine the minimal required dosages for Compound I-11 and Compound I-8, different doses of the compounds were each orally administered to mice. The mice were sacrificed after 4 hours, and the brain lysates were analyzed by immunoblotting with anti-p-TrkB-Y-816 antibody.
To search for orally bioactive catecholamines, catecholamine derivatives described herein were screened using primary neuronal cultures. The in vitro active compounds, Compounds I-8 and I-11, were adminstered into two to three month old C57BL/6J mice orally, intraperitoneally, and in drinking water. For oral administration, the mice were administered 0 mg (control), 5 mg, 10 mg, 20 mg, or 50 mg of Compound I-8 or Compound I-11. After 4 hours, TrkB phosphorylation in mouse brain was monitored by analyzing the brain lysates using immunoblotting with anti-p-TrkB-Y-816 antibody. The ratios of p-TrK/total TrkB were quantified (FIG. 27A). For intraperitoneal administration, 50 mg/kg of Compound I-8 or Compound I-11 were intraperitoneally injected into the mice. The brain lysates were prepared at different times (0 hr, 1 hr, 2 hr, 4 hr, and 8 hr) and were analyzed by immunoblotting with anti-p-TrkB-Y-816 antibody (FIG. 27B). Compound I-8 and Compound I-11 were dissolved in drinking water and given to mice. After 24 h, the brain lysates were prepared and analyzed by immunoblotting with anti-p-TrkB-Y-816 antibody (FIG. 27C). […] Therefore, these compounds are useful in treating various neurological or neuropsychiatric diseases as described herein.

TrkB [9] = biological target: T3, TrkB; experiment: TrkB activation in cortical neurons cultured from BDNF-null mice; assay type: cell-based; conditions: 15 min
Text: as §1

TrkB F616A = biological target: T4, TrkB F616A (Mus musculus, UniProt P15209, F616A); experiment: TrkB phosphorylation in TrkB F616A or TrkA F592A cortical neurons pretreated with K252a or 1NMPP1; assay type: cell-based, mice; conditions: TrkB F616A knock-in cortical neurons
T4 construct: endogenous in cells; host or cells: primary cortical neurons from TrkB F616A knock-in mice
T4 sequence (P15209 32-821 F616A): as the sequence (P15209 32-821 F616A) above
Method: as §5
On day 7, the primary cortical neurons were pretreated with 100 nM K252a or 1NMPP1 for 30 min, followed by 500 nM ADPP and DDAP. Cell lysates were analyzed by Western blotting.

O=C(O)CN(CCN(CC(=O)O)CC(=O)O)CC(=O)O [EDTA]
Effect of EDTA on stimulatory activity of TrkB activation by Zn (TrkB [1]; 1 mM EDTA, Zn 100 μM, 15 minutes): blocked

NCCc1c[nH]c2ccc(OS(=O)(=O)O)cc12 [Compound 5-HT-sulfate, 5-HT-sulfate]
TrkB tyrosine phosphorylation (immunofluorescent staining) (TrkB [2]): had no effect

c1ccc(CCCN2CCN(CCOC(c3ccccc3)c3ccccc3)CC2)cc1 [GBR12935]
Effect of inhibitor on dopamine-mediated TrkB activation (TrkB [1]; cortical neurons): significantly blocked

O=C(O)Cc1c[nH]c2ccc(O)cc12 [Compound 5-HIAA, 5-hydroxyindoleacetic acid]
TrkB tyrosine phosphorylation (immunofluorescent staining) (TrkB [2]): had no effect

COc1ccc2[nH]cc(CCNC(C)=O)c2c1 [melatonin]
TrkB tyrosine phosphorylation (immunofluorescent staining) (TrkB [2]): did not
TrkB activation (immunoblotting of neuronal lysates) (TrkB [3]): not activated

N[C@@H](Cc1ccc(O)c(O)c1)C(=O)O [L-DOPA, L-dihydroxyphenylalanine]
TrkB activation in primary cultured neurons (TrkB [3]): rapidly induced TrkB activation
TrkB tyrosine phosphorylation/activation in mice (TrkB [4]): provoked evident TrkB activation
TrkB activation in BDNF -/- cortex (TrkB [5]): strongly triggered TrkB activation

NCCc1ccc(O)c(O)c1 [dopamine]
TrkB activation in NET -/- neurons (TrkB [6]): notable TrkB activation

CNCC(=O)c1ccc(O)c(O)c1 [Compound I-2, 2-(methylamino)-3′,4′-dihydroxy-acetophenone]
TrkB activation in primary cortical neurons (TrkB [7]): display activity
TrkB activation in the brains of the mice (TrkB [8]): failed to activate TrkB

NCCc1c[nH]c2ccc(O)cc12 [serotonin]
TrkB tyrosine phosphorylation (immunofluorescent staining) (TrkB [2]): did not
TrkB activation (immunoblotting of neuronal lysates) (TrkB [3]): not activated
Activation of TrkB in BDNF-null cortical neurons (TrkB [9]): had no effect
TrkB phosphorylation provoked by the substance (TrkB F616A): had no effect

CN[C@@H](C(N)=O)C(=O)c1ccc(O)c(O)c1 [Compound I-7]
TrkB activation in primary cortical neurons (TrkB [7]): display activity

CN[C@@H](C(=O)N(C)C)[C@@H](O)c1ccc(O)c(O)c1 [Compound I-15]
TrkB activation in primary cortical neurons (TrkB [7]): display activity
